Measurements as given in PubChem BioAssay AID2060624 (Molecular Pharmacology Branch, DTP, NCI, 2025).

System: 217524-143-R1-J4-PDC spheroids with HUVEC/MSC, viability
Assay: Anticancer human tumor 217524-143-R1-J4-PDC patient-derived pancreatic carcinoma cell line growth inhibition [CLK]
Details: for IC50: curve of first compound; for viability, T/C: stronger effect = lower value
In short: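 Patient-derived tumor cells grown as complex spheroids with HUVEC endothelial cells and mesenchymal stem cells, treated with drug combinations. Concentrations descend in half-log steps from near clinical Cmax, or from 10 microM if Cmax unknown.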

[1] = second compound 0.0316 µM, first compound 0.0316 µM
[2] = second compound 0.0316 µM, first compound 0.1 µM
[3] = second compound 0.0316 µM, first compound 0.316 µM
[4] = second compound 0.0316 µM, first compound 1 µM
[5] = second compound 0.1 µM, first compound 0.0316 µM
[6] = second compound 0.1 µM, first compound 0.1 µM
[7] = second compound 0.1 µM, first compound 0.316 µM
[8] = second compound 0.1 µM, first compound 1 µM
[9] = second compound 0.316 µM, first compound 0.0316 µM
[10] = second compound 0.316 µM, first compound 0.1 µM
[11] = second compound 0.316 µM, first compound 0.316 µM
[12] = second compound 0.316 µM, first compound 1 µM
[13] = second compound 1 µM, first compound 0.0316 µM
[14] = second compound 1 µM, first compound 0.1 µM
[15] = second compound 1 µM, first compound 0.316 µM
[16] = second compound 1 µM, first compound 1 µM
[17] = second compound 3.16 µM, first compound 0.0316 µM
[18] = second compound 3.16 µM, first compound 0.1 µM
[19] = second compound 3.16 µM, first compound 0.316 µM
[20] = second compound 3.16 µM, first compound 1 µM
[21] = second compound 10 µM, first compound 0.0316 µM
[22] = second compound 10 µM, first compound 0.1 µM
[23] = second compound 10 µM, first compound 0.316 µM
[24] = second compound 10 µM, first compound 1 µM
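Note: spheroids exposed to agents for seven days before reading.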
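Throughout, for viability, T/C: 100% = DMSO vehicle control viability.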

Question: With `CC(=O)O[C@H]1C(=O)[C@@]2(C)[C@H]([C@H](OC(=O)c3ccccc3)[C@]3(O)C[C@H](OC(=O)[C@H](O)[C@@H](NC(=O)c4ccccc4)c4ccccc4)C(C)=C1C3(C)C)[C@]1(OC(C)=O)CO[C@@H]1C[C@@H]2O` + CNC(=O)c1ccc(Nc2nc(OC3CCCC3)c3c(-c4ccc5nc(C)oc5c4)c[nH]c3n2)c(OC)c1 as the compound, how does the IC50 (second compound 0.0316 µM) read?
Answer: Its IC50 is under 31.6 nM.

Question: What about the IC50 (second compound 0.1 µM) of the same compound?
Answer: Its IC50 is under 31.6 nM.

Question: And the IC50 (second compound 0.316 µM)?
Answer: Its IC50 is under 31.6 nM.

Question: And the IC50 (second compound 1 µM)?
Answer: The IC50 was under 31.6 nM.

Question: And the IC50 (second compound 3.16 µM)?
Answer: The IC50 was under 31.6 nM.

Question: What about the IC50 (second compound 10 µM) of the same compound?
Answer: The IC50 was under 31.6 nM.

Question: And the viability, T/C [1]?
Answer: Its viability, T/C is 19.7%.

Question: What about the viability, T/C [2] of the same compound?
Answer: The viability, T/C was 14.3%.

Question: And the viability, T/C [3]?
Answer: The viability, T/C was 16.9%.

Question: What about the viability, T/C [4] of the same compound?
Answer: Its viability, T/C is 16.6%.

Question: And the viability, T/C (second compound 0.0316 µM, first compound 3.16 µM)?
Answer: The viability, T/C was 25.4%.

Question: What about the viability, T/C (second compound 0.0316 µM, first compound 10 µM) of the same compound?
Answer: The viability, T/C was 30.8%.

Question: What about the viability, T/C [5] of the same compound?
Answer: Its viability, T/C is 31.3%.

Question: What about the viability, T/C [6] of the same compound?
Answer: The viability, T/C was 26.3%.

Question: What about the viability, T/C [7] of the same compound?
Answer: The viability, T/C was 31.9%.

Question: And the viability, T/C [8]?
Answer: Its viability, T/C is 28%.

Question: And the viability, T/C (second compound 0.1 µM, first compound 3.16 µM)?
Answer: The viability, T/C was 33.3%.

Question: What about the viability, T/C (second compound 0.1 µM, first compound 10 µM) of the same compound?
Answer: Its viability, T/C is 43.4%.

Question: What about the viability, T/C [9] of the same compound?
Answer: The viability, T/C was 34.9%.

Question: And the viability, T/C [10]?
Answer: Its viability, T/C is 30.4%.

Question: What about the viability, T/C [11] of the same compound?
Answer: The viability, T/C was 37%.

Question: And the viability, T/C [12]?
Answer: The viability, T/C was 39.8%.

Question: What about the viability, T/C (second compound 0.316 µM, first compound 3.16 µM) of the same compound?
Answer: Its viability, T/C is 34.5%.

Question: What about the viability, T/C (second compound 0.316 µM, first compound 10 µM) of the same compound?
Answer: Its viability, T/C is 33%.

Question: And the viability, T/C [13]?
Answer: Its viability, T/C is 20.6%.

Question: What about the viability, T/C [14] of the same compound?
Answer: Its viability, T/C is 27.6%.

Question: What about the viability, T/C [15] of the same compound?
Answer: The viability, T/C was 33.4%.

Question: And the viability, T/C [16]?
Answer: Its viability, T/C is 39.4%.

Question: What about the viability, T/C (second compound 1 µM, first compound 3.16 µM) of the same compound?
Answer: Its viability, T/C is 35.9%.

Question: And the viability, T/C (second compound 1 µM, first compound 10 µM)?
Answer: Its viability, T/C is 33%.

Question: What about the viability, T/C [17] of the same compound?
Answer: Its viability, T/C is 20.9%.

Question: And the viability, T/C [18]?
Answer: The viability, T/C was 26.1%.

Question: And the viability, T/C [19]?
Answer: Its viability, T/C is 31%.

Question: And the viability, T/C [20]?
Answer: The viability, T/C was 34.8%.

Question: What about the viability, T/C (second compound 3.16 µM, first compound 3.16 µM) of the same compound?
Answer: The viability, T/C was 37.6%.

Question: And the viability, T/C (second compound 3.16 µM, first compound 10 µM)?
Answer: Its viability, T/C is 31.2%.

Question: What about the viability, T/C [21] of the same compound?
Answer: Its viability, T/C is 19.1%.

Question: What about the viability, T/C [22] of the same compound?
Answer: The viability, T/C was 27.5%.

Question: What about the viability, T/C [23] of the same compound?
Answer: Its viability, T/C is 29%.

Question: What about the viability, T/C [24] of the same compound?
Answer: The viability, T/C was 36.2%.

Question: And the viability, T/C (second compound 10 µM, first compound 3.16 µM)?
Answer: The viability, T/C was 40.2%.

Question: What about the viability, T/C (second compound 10 µM, first compound 10 µM) of the same compound?
Answer: Its viability, T/C is 32.2%.

Question: With `CCc1c2c(nc3ccc(O)cc13)-c1cc3c(c(=O)n1C2)COC(=O)[C@]3(O)CC` + CNC(=O)c1ccc(Nc2nc(OC3CCCC3)c3c(-c4ccc5nc(C)oc5c4)c[nH]c3n2)c(OC)c1 as the compound, how does the IC50 (second compound 0.0316 µM) read?
Answer: The IC50 was 3.76 nM.

Question: And the IC50 (second compound 0.1 µM)?
Answer: The IC50 was under 3.16 nM.

Question: What about the IC50 (second compound 0.316 µM) of the same compound?
Answer: Its IC50 is under 3.16 nM.

Question: And the IC50 (second compound 1 µM)?
Answer: Its IC50 is under 3.16 nM.

Question: And the IC50 (second compound 3.16 µM)?
Answer: Its IC50 is under 3.16 nM.

Question: What about the IC50 (second compound 10 µM) of the same compound?
Answer: The IC50 was under 3.16 nM.

Question: And the viability, T/C (second compound 0.0316 µM, first compound 0.00316 µM)?
Answer: Its viability, T/C is 53.2%.

Question: And the viability, T/C (second compound 0.0316 µM, first compound 0.01 µM)?
Answer: The viability, T/C was 39.4%.

Question: And the viability, T/C [1]?
Answer: The viability, T/C was 32.2%.

Question: What about the viability, T/C [2] of the same compound?
Answer: The viability, T/C was 24.1%.

Question: What about the viability, T/C [3] of the same compound?
Answer: The viability, T/C was 15.6%.

Question: What about the viability, T/C [4] of the same compound?
Answer: Its viability, T/C is 3.04%.

Question: And the viability, T/C (second compound 0.1 µM, first compound 0.00316 µM)?
Answer: Its viability, T/C is 48.7%.

Question: And the viability, T/C (second compound 0.1 µM, first compound 0.01 µM)?
Answer: The viability, T/C was 35.8%.

Question: And the viability, T/C [5]?
Answer: Its viability, T/C is 27.9%.

Question: What about the viability, T/C [6] of the same compound?
Answer: Its viability, T/C is 24.6%.

Question: And the viability, T/C [7]?
Answer: Its viability, T/C is 17.4%.

Question: And the viability, T/C [8]?
Answer: Its viability, T/C is 3.12%.

Question: What about the viability, T/C (second compound 0.316 µM, first compound 0.00316 µM) of the same compound?
Answer: The viability, T/C was 39.6%.

Question: And the viability, T/C (second compound 0.316 µM, first compound 0.01 µM)?
Answer: Its viability, T/C is 30.1%.

Question: What about the viability, T/C [9] of the same compound?
Answer: Its viability, T/C is 25.1%.

Question: What about the viability, T/C [10] of the same compound?
Answer: The viability, T/C was 21.4%.

Question: And the viability, T/C [11]?
Answer: Its viability, T/C is 12.9%.

Question: What about the viability, T/C [12] of the same compound?
Answer: Its viability, T/C is 3.58%.

Question: What about the viability, T/C (second compound 1 µM, first compound 0.00316 µM) of the same compound?
Answer: Its viability, T/C is 24.6%.

Question: What about the viability, T/C (second compound 1 µM, first compound 0.01 µM) of the same compound?
Answer: Its viability, T/C is 20.5%.

Question: What about the viability, T/C [13] of the same compound?
Answer: The viability, T/C was 17.6%.

Question: What about the viability, T/C [14] of the same compound?
Answer: The viability, T/C was 15.6%.

Question: What about the viability, T/C [15] of the same compound?
Answer: The viability, T/C was 9.88%.

Question: What about the viability, T/C [16] of the same compound?
Answer: Its viability, T/C is 3.65%.

Question: What about the viability, T/C (second compound 3.16 µM, first compound 0.00316 µM) of the same compound?
Answer: Its viability, T/C is 23.6%.

Question: What about the viability, T/C (second compound 3.16 µM, first compound 0.01 µM) of the same compound?
Answer: Its viability, T/C is 20.8%.

Question: What about the viability, T/C [17] of the same compound?
Answer: The viability, T/C was 15.6%.

Question: What about the viability, T/C [18] of the same compound?
Answer: Its viability, T/C is 13%.

Question: And the viability, T/C [19]?
Answer: Its viability, T/C is 9.01%.

Question: What about the viability, T/C [20] of the same compound?
Answer: The viability, T/C was 2.91%.

Question: And the viability, T/C (second compound 10 µM, first compound 0.00316 µM)?
Answer: The viability, T/C was 23.2%.

Question: And the viability, T/C (second compound 10 µM, first compound 0.01 µM)?
Answer: Its viability, T/C is 18.8%.

Question: And the viability, T/C [21]?
Answer: Its viability, T/C is 17%.

Question: What about the viability, T/C [22] of the same compound?
Answer: Its viability, T/C is 13.4%.

Question: What about the viability, T/C [23] of the same compound?
Answer: Its viability, T/C is 10%.

Question: What about the viability, T/C [24] of the same compound?
Answer: The viability, T/C was 3.01%.
